The structures appear in SMILES notation. Values joined by “and” are separate entries in the source; they are usually repeats but may differ in a detail not shown here. Equal values may be shown once.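 Briefly, cells in 96-well plates were exposed to five compound concentrations for 48 h, and endpoints were estimated by linear interpolation. GI50 is the concentration that inhibits growth by half. The concentration for full growth arrest is given as TGI.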

Test systems include NCI/ADR-RES ovarian; HCT-116 colon; IGROV1 ovarian; HS 578T breast; OVCAR-3 ovarian; OVCAR-5 ovarian; EKVX NSCLC; SNB-75 CNS; SK-MEL-2 melanoma; NCI-H522 lung.
Experiment in all cases: DTP human tumour cell line panel, 48 h

`C=CCn1c(=O)c2cnc(Nc3ccc(N4CCN(C)CC4)cc3)nc2n1-c1cccc(C(C)(C)O)n1`: the GI50 is 2.19 µM and 2.73 µM in the test with NCI/ADR-RES ovarian; 0.321 µM and 0.328 µM in the test on HCT-116 colon; 0.184 µM and 0.225 µM with IGROV1 ovarian; 0.894 µM and 0.471 µM with HS 578T breast; 0.241 µM and 0.331 µM with OVCAR-3 ovarian; 0.557 µM and 1.05 µM with OVCAR-5 ovarian. For the same compound, the GI50 in the test on EKVX NSCLC is 0.97 µM and 1.36 µM; in the test with SNB-75 CNS, 1.44 µM and 0.717 µM; in the test with SK-MEL-2 melanoma, 0.118 µM and 0.266 µM; in the test with NCI-H522 lung it was 0.176 µM and 0.293 µM. In addition, the TGI is 18.6 µM and > 10 µM in the test on NCI/ADR-RES ovarian; 11.4 µM and > 10 µM in the test on HCT-116 colon; 15.5 µM and > 5.26 µM with IGROV1 ovarian; > 60 µM with HS 578T breast; 0.9 µM and 1.47 µM with OVCAR-3 ovarian; > 100 µM with OVCAR-5 ovarian. For the same compound, the TGI was 30.1 µM and > 10 µM in the test on EKVX NSCLC; 8.68 µM and 6.37 µM in the test on SNB-75 CNS; 0.956 µM and 2.99 µM in the test with SK-MEL-2 melanoma; 0.645 µM and 2.08 µM in the test with NCI-H522 lung.

Regarding `CCSc1nc(N)c(C#N)c(-c2ccco2)c1C#N`, the GI50 in the test with NCI/ADR-RES ovarian was 34 µM; in the test on HCT-116 colon it was 26.8 µM; in the test with IGROV1 ovarian, 36.8 µM; with HS 578T breast it was 33.9 µM; with OVCAR-3 ovarian it was 91.3 µM; with OVCAR-5 ovarian, > 100 µM. The GI50 with EKVX NSCLC is 25.4 µM; with SNB-75 CNS, > 100 µM; in the test with SK-MEL-2 melanoma, > 100 µM; with NCI-H522 lung it was 91.5 µM. Besides, the TGI with NCI/ADR-RES ovarian, in the test on HCT-116 colon, in the test with IGROV1 ovarian, in the test with HS 578T breast, in the test on OVCAR-3 ovarian and in the test on OVCAR-5 ovarian was > 100 µM each time. Besides, the TGI in the test on EKVX NSCLC, in the test with SNB-75 CNS, in the test with SK-MEL-2 melanoma and in the test on NCI-H522 lung was > 100 µM in each case.

On to `CC1=C(C(=O)Nc2ccc(F)c(Cl)c2)C(c2ccccc2O)NC(=O)N1` (stereo not given), for which the GI50 with NCI/ADR-RES ovarian is > 100 µM; in the test with HCT-116 colon it was 51.7 µM; in the test with IGROV1 ovarian it was 50.2 µM; in the test with HS 578T breast, 76.3 µM; in the test on OVCAR-3 ovarian, 65.4 µM; in the test on OVCAR-5 ovarian, > 100 µM. Also, the GI50 in the test on EKVX NSCLC was > 100 µM; in the test on SNB-75 CNS, 40 µM; in the test with SK-MEL-2 melanoma, > 100 µM; in the test with NCI-H522 lung it was 61.9 µM. Besides, the TGI in the test with NCI/ADR-RES ovarian, with HCT-116 colon, in the test on IGROV1 ovarian, in the test on HS 578T breast, in the test on OVCAR-3 ovarian and in the test on OVCAR-5 ovarian was > 100 µM each time. Further, the TGI with EKVX NSCLC, with SNB-75 CNS, with SK-MEL-2 melanoma and with NCI-H522 lung was > 100 µM in each case.

For `NNc1c2ccccc2nc2ccccc12`, the GI50 in the test on NCI/ADR-RES ovarian was 3.76 µM; with HCT-116 colon, 3.99 µM; in the test on IGROV1 ovarian it was 3.07 µM; in the test on HS 578T breast it was 16 µM; with OVCAR-3 ovarian, 5.85 µM; with OVCAR-5 ovarian, 15.8 µM. In addition, the GI50 was 1.89 µM in the test on EKVX NSCLC, 2.67 µM in the test on SNB-75 CNS, 12.5 µM in the test on SK-MEL-2 melanoma and 2.59 µM in the test with NCI-H522 lung. In addition, the TGI in the test with NCI/ADR-RES ovarian is 27.4 µM; in the test on HCT-116 colon, 17.6 µM; in the test with IGROV1 ovarian, 20.8 µM; in the test with HS 578T breast, > 100 µM; in the test on OVCAR-3 ovarian, 27.3 µM; in the test with OVCAR-5 ovarian, 54.1 µM. In addition, the TGI is 26.8 µM in the test with EKVX NSCLC, 17.8 µM with SNB-75 CNS, 29.2 µM in the test with SK-MEL-2 melanoma and 14.4 µM in the test with NCI-H522 lung.

With `C[C@H]1c2ccccc2CN1CCCOc1cc2c(cc1OCC1CC1)C1(CCCC1)C(N)=N2`, the GI50 with NCI/ADR-RES ovarian was 2.84 µM; with HCT-116 colon it was 0.95 µM; with IGROV1 ovarian it was 2.27 µM; with HS 578T breast, 1.74 µM; with OVCAR-3 ovarian it was 1.91 µM; in the test on OVCAR-5 ovarian it was 3.6 µM. The GI50 in the test with EKVX NSCLC is 4.33 µM; in the test with SNB-75 CNS it was 0.994 µM; with SK-MEL-2 melanoma, 1.87 µM; in the test on NCI-H522 lung, 1.66 µM. The TGI came to 10.5 µM with NCI/ADR-RES ovarian; 2.26 µM with HCT-116 colon; 9.11 µM in the test on IGROV1 ovarian; 9.44 µM in the test with HS 578T breast; 6.86 µM in the test on OVCAR-3 ovarian; 10.1 µM with OVCAR-5 ovarian. Moreover, the TGI in the test on EKVX NSCLC is 10.8 µM; in the test on SNB-75 CNS, 4.86 µM; in the test on SK-MEL-2 melanoma it was 6.69 µM; in the test on NCI-H522 lung, 6.62 µM.

With `O=NN(CCCl)C(=O)NC1CCC(=O)NC1=O` (stereo not given), the total growth inhibition concentration (TGI) in the test on NCI/ADR-RES ovarian is 710 µM; with HCT-116 colon, 605 µM; with IGROV1 ovarian, 1140 µM; in the test on HS 578T breast, 1100 µM; in the test on OVCAR-3 ovarian, > 1160 µM; in the test on OVCAR-5 ovarian, > 1210 µM. Moreover, the TGI is 515 µM with EKVX NSCLC, 396 µM in the test on SNB-75 CNS, 405 µM in the test with SK-MEL-2 melanoma and 485 µM with NCI-H522 lung.

Broadly, the GI50 is the concentration that inhibits growth by half. Broadly, the TGI is the concentration giving total growth inhibition. A high value points to lower sensitivity of the cells.

Values taken from PubChem BioAssay (NCI).
